From US9512132B2, “Pyrazole compounds as CB2 agonists” (Hoffmann-La Roche Inc., priority 2013, dated 2016)

What was measured:
human CB1 receptor = human CB1 receptor (Homo sapiens (Human), UniProt P21554); test: cAMP assay, CHO cells expressing human CB1 receptors; format: cell-based; conditions: functional cAMP assay, CHO cells expressing human CB1; read-out: human CB1 EC50
Protocol: (§1) CHO cells expressing human CB1 or CB2 receptors are seeded 17-24 hours prior to the experiment 50.000 cells per well in a black 96 well plate with flat clear bottom (Corning Costar #3904) in DMEM (Invitrogen No. 31331), lx HT supplement, with 10% fetal calf serum and incubated at 5% CO2 and 37° C. in a humidified incubator. The growth medium was exchanged with Krebs Ringer Bicarbonate buffer with 1 mM IBMX and incubated at 30° C. for 30 min. Compounds were added to a final assay volume of 100 μl and incubated for 30 min at 30° C. Using the cAMP-Nano-TRF detection kit the assay (Roche Diagnostics) was stopped by the addition of 50 μl lysis reagent (Tris, NaCl, 1.5% Triton X100, 2.5% NP40, 10% NaN3) and 50 μl detection solutions (20 μM mAb Alexa700-cAMP 1:1, and 48 μM Ruthenium-2-AHA-cAMP) and shaken for 2 h at room temperature. The time-resolved energy transfer is measured by a TRF reader (Evotec Technologies GmbH), equipped with a ND:YAG laser as excitation source. The plate is measured twice with the excitation at 355 nm and at the emission with a delay of 100 ns and a gate of 100 ns, total exposure time 10 s at 730 (bandwidth 30 nm) or 645 nm (bandwidth 75 nm), respectively. The FRET signal is calculated as follows: FRET=T730-Alexa730-P(T645-B645) with P=Ru730-B730/Ru645-B645, where T730 is the test well measured at 730 nM, T645 is the test well measured at 645 nm, B730 and B645 are the buffer controls at 730 nm and 645 nm, respectively. cAMP content is determined from the function of a standard curve spanning from 10 μM to 0.13 nM cAMP.
(§2) EC50 values were determined using Activity Base analysis (ID Business Solution, Limited). The EC50 values for a wide range of cannabinoid agonists generated from this assay were in agreement with the values published in the scientific literature.

human CB2 receptor = human CB2 receptor (Homo sapiens (Human), UniProt P34972); test: cAMP assay, CHO cells expressing human CB2 receptors; format: cell-based; conditions: functional cAMP assay, CHO cells expressing human CB2; read-out: human CB2 EC50
Chain of human CB2 receptor (P34972 whole entry): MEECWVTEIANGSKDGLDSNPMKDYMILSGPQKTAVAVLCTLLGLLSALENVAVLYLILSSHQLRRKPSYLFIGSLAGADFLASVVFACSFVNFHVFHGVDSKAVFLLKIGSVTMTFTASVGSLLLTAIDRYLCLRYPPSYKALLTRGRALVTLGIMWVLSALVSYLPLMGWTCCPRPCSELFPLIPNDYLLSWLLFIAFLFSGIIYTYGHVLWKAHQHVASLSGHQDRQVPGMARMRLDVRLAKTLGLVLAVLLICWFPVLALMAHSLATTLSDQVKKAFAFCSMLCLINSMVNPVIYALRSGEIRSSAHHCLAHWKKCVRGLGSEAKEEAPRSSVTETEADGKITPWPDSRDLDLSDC
Protocol: as §1, §2

Chain of human CB1 receptor (P21554 whole entry): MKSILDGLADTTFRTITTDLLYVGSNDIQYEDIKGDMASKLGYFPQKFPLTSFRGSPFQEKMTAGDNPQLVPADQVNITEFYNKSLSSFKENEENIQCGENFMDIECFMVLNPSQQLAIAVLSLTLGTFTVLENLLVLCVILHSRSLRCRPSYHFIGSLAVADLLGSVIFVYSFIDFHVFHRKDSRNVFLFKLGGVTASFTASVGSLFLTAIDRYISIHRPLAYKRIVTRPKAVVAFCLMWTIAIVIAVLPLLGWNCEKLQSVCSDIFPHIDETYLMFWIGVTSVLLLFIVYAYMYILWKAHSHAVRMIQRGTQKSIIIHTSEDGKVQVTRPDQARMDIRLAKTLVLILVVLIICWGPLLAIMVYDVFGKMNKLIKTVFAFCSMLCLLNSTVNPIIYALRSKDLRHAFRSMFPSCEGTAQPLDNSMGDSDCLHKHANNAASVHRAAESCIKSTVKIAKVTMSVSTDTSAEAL

| Compound | EC50 (human CB1 receptor) | EC50 (human CB2 receptor) |
| --- | --- | --- |
| Cc1nonc1CO[C@H]1CCN(c2nc(C(C)(C)C)nc3c2cnn3Cc2nonc2C)C1 [Example 26, 6-tert-Butyl-4-[(S)-3-(4-methyl-furazan-3-ylmethoxy)-pyrrolidin-1-yl]-1-(4-methyl-furazan-3-ylmethyl)-1H-pyrazolo[3,4-d]pyrimidine] | > 10000 nM | 35.6 nM |
| Cc1nonc1Cn1ncc2c(N3CCC(F)(F)C3)nc(C3CC3)cc21 [Example 27, 6-Cyclopropyl-4-(3,3-difluoro-pyrrolidin-1-yl)-1-(4-methyl-furazan-3-ylmethyl)-1H-pyrazolo[4,3-c]pyridine] | > 10000 nM | 42.5 nM |
| Cc1nonc1Cn1ncc2c(N3CCC(F)(F)C3)cc(C3CC3)nc21 [Example 28, 6-Cyclopropyl-4-(3,3-difluoro-pyrrolidin-1-yl)-1-(4-methyl-furazan-3-ylmethyl)-1H-pyrazolo[3,4-b]pyridine] | > 10000 nM | 1.9 nM |
| CC(C)(C)c1nc(N2CC[C@H](O)C2)c2cnn(Cc3ccccc3C(F)(F)F)c2n1 [Example 29, (S)-1-[6-tert-Butyl-1-[(2-trifluoromethylphenyl)methyl]-1H-pyrazolo[3,4-d]pyrimidin-4-yl]pyrrolidin-3-ol] | > 10000 nM | 1.9 nM |
| CC(C)(C)c1nc(N2CC[C@H](O)C2)c2cnn(Cc3ccccc3S(C)(=O)=O)c2n1 [Example 30, (S)-1-[6-tert-Butyl-1-(2-methanesulfonyl-benzyl)-1H-pyrazolo[3,4-d]pyrimidin-4-yl]-pyrrolidin-3-ol] | > 10000 nM | 2.4 nM |
| Cn1nnnc1Cn1ncc2c(N3CC[C@H](O)C3)nc(C(C)(C)C)nc21 [Example 31, (S)-1-[6-tert-Butyl-1-(1-methyl-1H-tetrazol-5-ylmethyl)-1H-pyrazolo[3,4-d]pyrimidin-4-yl]-pyrrolidin-3-ol] | > 10000 nM | 17.3 nM |
| CC(C)(C)c1nc(N2CC[C@H](O)C2)c2cnn(Cc3ncccc3Cl)c2n1 [Example 32, (S)-1-[6-tert-Butyl-1-(3-chloro-pyridin-2-ylmethyl)-1H-pyrazolo[3,4-d]pyrimidin-4-yl]-pyrrolidin-3-ol] | > 10000 nM | 1.5 nM |
| CC(C)(C)c1nc(N2CC[C@H](O)C2)c2cnn(Cc3nnnn3C3CC3)c2n1 [Example 33, (S)-1-[6-tert-Butyl-1-(1-cyclopropyl-1H-tetrazol-5-ylmethyl)-1H-pyrazolo[3,4-d]pyrimidin-4-yl]-pyrrolidin-3-ol] | > 10000 nM | 8.8 nM |
| CC(C)(C)c1nc(N2CCC[C@@H]2CO)c2cnn(Cc3ccccc3C(F)(F)F)c2n1 [Example 34, {(R)-1-[6-tert-Butyl-1-[(2-trifluoromethylphenyl)methyl]-1H-pyrazolo[3,4-d]pyrimidin-4-yl]pyrrolidin-2-yl}-methanol] | > 10000 nM | 5 nM |
| COC[C@H]1CCCN1c1nc(C(C)(C)C)nc2c1cnn2Cc1ccccc1C(F)(F)F [Example 35, 6-tert-Butyl-4-((R)-2-methoxymethyl-pyrrolidin-1-yl)-1-[(2-trifluoromethylphenyl)methyl]-1H-pyrazolo[3,4-d]pyrimidine] | > 10000 nM | 13.3 nM |
| COC[C@H]1CCCN1c1nc(C(C)(C)C)nc2c1cnn2Cc1nonc1C [Example 36, 6-tert-Butyl-4-((R)-2-methoxymethyl-pyrrolidin-1-yl)-1-(4-methyl-furazan-3-ylmethyl)-1H-pyrazolo[3,4-d]pyrimidine] | > 10000 nM | 1.4 nM |
| FC1(F)CCN(c2nc(Cl)nc3c2cnn3Cc2ccccc2C(F)(F)F)C1 [Example 37, 6-Chloro-4-(3,3-difluoropyrrolidin-1-yl)-1-[[2-(trifluoromethyl)phenyl]methyl]pyrazolo[3,4-d]pyrimidine] | > 10000 nM | 17.2 nM |
| CC(C)(C)COc1nc(N2CCC(F)(F)C2)c2cnn(Cc3ccccc3C(F)(F)F)c2n1 [Example 38, 4-(3,3-Difluoropyrrolidin-1-yl)-6-(2,2-dimethylpropoxy)-1-[[2-(trifluoromethyl)phenyl]methyl]pyrazolo[3,4-d]pyrimidine] | > 10000 nM | 16 nM |
